Results reported in the supplement of paper PMC10307832.

Experiments:
Test in all cases: relative viability (nuclei count vs DMSO), 5 days (fraction); higher = more cells survive
[1] = compound: Cn1cc(-c2cnn3c(N)c(Br)c([C@@H]4CCCNC4)nc23)cn1 + CC(C)C[C@H](NC(=O)[C@H](Cc1ccccc1)NC(=O)c1cnccn1)B(O)O [Bortezomib] (partner 0.002 µM)
Procedure, shortened: (§1)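 Lung cancer cell lines were pin-tool dosed in 1536-well plates on the day after seeding, with either a lone drug or a fixed anchor-drug dose plus five library-drug doses (not always all listed) in √10 steps. Nuclei were counted on 4× images after 5 days. Relative viability is the ratio of treated-well to vehicle-well nuclei counts, with each value a median of duplicate plates.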

[2] = compound: Cn1cc(-c2cnn3c(N)c(Br)c([C@@H]4CCCNC4)nc23)cn1 + CS(=O)(=O)CCNCc1ccc(-c2ccc3ncnc(Nc4ccc(OCc5cccc(F)c5)c(Cl)c4)c3c2)o1 [Lapatinib] (partner 2 µM)
Procedure, shortened: as §1

[3] = compound: Cn1cc(-c2cnn3c(N)c(Br)c([C@@H]4CCCNC4)nc23)cn1 + NC(=O)Nc1cc(-c2cccc(F)c2)sc1C(=O)N[C@H]1CCCNC1 [AZD7762] (partner 0.2 µM)
Procedure, shortened: as §1

[4] = compound: Cn1cc(-c2cnn3c(N)c(Br)c([C@@H]4CCCNC4)nc23)cn1 + Nc1ncn([C@H]2C[C@H](O)[C@@H](CO)O2)c(=O)n1 [Decitabine] (partner 2 µM)
Procedure, shortened: as §1

Row | Cell Line | relative viability ([1]; first compound 0.05 µM) | relative viability ([1]; first compound 0.1581 µM) | relative viability ([1]; first compound 0.5 µM) | relative viability ([1]; first compound 1.581 µM) | relative viability ([1]; first compound 5 µM) | relative viability ([2]; first compound 0.05 µM) | relative viability ([2]; first compound 0.1581 µM) | relative viability ([2]; first compound 0.5 µM) | relative viability ([2]; first compound 1.581 µM) | relative viability ([2]; first compound 5 µM) | relative viability ([3]; first compound 0.05 µM) | relative viability ([3]; first compound 0.1581 µM) | relative viability ([3]; first compound 0.5 µM) | relative viability ([3]; first compound 1.581 µM) | relative viability ([3]; first compound 5 µM) | relative viability ([4]; first compound 0.05 µM) | relative viability ([4]; first compound 0.1581 µM) | relative viability ([4]; first compound 0.5 µM) | relative viability ([4]; first compound 1.581 µM) | relative viability ([4]; first compound 5 µM)
1 | PC-14 | 0.936 | 0.971 | 0.83 | 0.549 | 0.355 | 0.322 | 0.366 | 0.363 | 0.332 | 0.257 | 0.348 | 0.273 | 0.332 | 0.277 | 0.182 | 0.237 | 0.2 | 0.206 | 0.186 | 0.123
2 | RERF-LC-KJ | 1.12 | 1.17 | 1.02 | 0.96 | 0.953 | 0.917 | 0.966 | 0.862 | 0.828 | 0.771 | 1.1 | 0.864 | 1.1 | 0.872 | 0.749 | 0.822 | 0.85 | 0.636 | 0.549 | 0.628
